Test results taken from US11510886B2, “Metformin amino acid compounds and methods of using the same” (Laboratorios Silancs S.A. DE C.V., priority 2016, dated 2022).
Read-outs that look alike come from different tables or passages of the source.

What was measured:
[1] = terms of European Pharmacopeia 7.0 section 5.11
[2] = for Body weight (g) On administration day / Body weight (g) On distribution day / Body weight (g) On first administration day: Mean ± SD; for Body weight (g) On distribution day: before dosing
blood glucose level = assay: Effect of metformin compounds on the glucokinetic profile after oral glucose overload; format: in vivo, Rat; details: for Blood glucose level, 0.25 h post-glucose overload / Blood glucose level, 0.5 h post-glucose overload / Blood glucose level, 1 h post-glucose overload / Blood glucose level, 2 h post-glucose overload / Blood glucose level, 3 h post-glucose overload / Blood glucose level, 4 h post-glucose overload / Blood glucose level, 6 h post-glucose overload / Blood glucose level, pre-glucose overload: rat, 750 mg/kg referred to metformin base, mean ± SD; for Blood glucose level, 0.25 h post-glucose overload / Blood glucose level, 1 h post-glucose overload / Blood glucose level, 4 h post-glucose overload / Blood glucose level, pre-glucose overload: *p<0.05 vs vehicle; for Blood glucose level, 3 h post-glucose overload: *p<0.05, **p<0.01 vs vehicle; for blood glucose level vs vehicle, after the oral glucose overload: 750 mg/kg for five days, glucose 3 g/kg, isolated time points 0.25-4 hours
[3] = STZ-diabetic male rats, mean ± SD; for Absolute body weight, Day −3 (before STZ administration): baseline before STZ and before first TI/RI administration; for Absolute body weight, Day −1 / Absolute body weight, Day −2 (distribution of groups): before first TI/RI administration
[4] = test system: rat model of streptozotocin-induced diabetes; assay: Blood glucose levels in rat model of streptozotocin-induced diabetes, 14 days oral; details: mean ± SD; for Blood glucose levels before TI/RI administration, Day −1: STZ-diabetic rats, before first TI/RI administration, n.d. = all values beyond ULOD of glucometer (600 mg/dl), § n=1, ¢ n=2; for Blood glucose levels before TI/RI administration, Day −3 (before STZ administration): rats, baseline before STZ and before first TI/RI administration
[5] = rat, in vivo, po, 250 mg/kg
[6] = Groups L-U, 750 mg/kg, first column of this head
[7] = Groups L-U, 750 mg/kg, second column of this head

Compound	Body weight (g) On administration day ([2]; Groups B-K, 250 mg/kg)	Body weight (g) On distribution day ([2]; Groups B-K, 250 mg/kg)	Body weight (g) On distribution day ([2]; Groups L-U, 750 mg/kg)	Body weight (g) On first administration day [2, 6]	Body weight (g) On first administration day [2, 7]	Blood glucose level, 0.5 h post-glucose overload (blood glucose level)	Blood glucose level, 1 h post-glucose overload (blood glucose level)	Blood glucose level, 2 h post-glucose overload (blood glucose level)	Blood glucose level, 4 h post-glucose overload (blood glucose level)	Blood glucose level, 6 h post-glucose overload (blood glucose level)	Absolute body weight, Day −3 (before STZ administration) [3]	Absolute body weight, Day −1 [3]	Absolute body weight, Day −2 (distribution of groups) [3]	Blood glucose levels before TI/RI administration, Day −3 (before STZ administration) [4]	AUC(0-24) [5]	Cmax [5]	Metformin base concentration in plasma, 0.5 h post-administration [5]	Metformin base concentration in plasma, 1 h post-administration [5]	Metformin base concentration in plasma, 2 h post-administration [5]	Metformin base concentration in plasma, 4 h post-administration [5]	further results
metformin leucinate	195.70 ± 9.85 g	187.38 ± 6.74 g	185.53 ± 12.04 g	199.25 ± 9.43 g	193.53 ± 11.92 g	90.75 ± 28.16 mg/dL	99.50 ± 27.50 mg/dL	99.00 ± 2.45 mg/dL	89.75 ± 3.69 mg/dL	85.25 ± 2.22 mg/dL	234.57 ± 1.87 g	207.93 ± 0.99 g	221.90 ± 6.16 g	118.33 ± 10.02 mg/dL	133.32 µg·h/mL	15430 ng/mL	10.21 ± 1.77 µg/mL	15.43 ± 0.81 µg/mL	12.30 ± 2.41 µg/mL	12.57 ± 4.13 µg/mL	Physical form (hygroscopicity) [1]: Deliquescent; Blood glucose level, 0.25 h post-glucose overload (blood glucose level): 87.75 ± 31.40 mg/dL; Blood glucose level, 3 h post-glucose overload (blood glucose level): 91.75 ± 6.99 mg/dL; Blood glucose level, pre-glucose overload (blood glucose level): 72.25 ± 9.29 mg/dL; Blood glucose levels before TI/RI administration, Day −1 [4]: 563.00 ± 36.39 mg/dL; Metformin base concentration in plasma, 8 h post-administration [5]: 5.88 ± 0.80 µg/mL; Metformin base concentration in plasma, 24 h post-administration [5]: 0.21 ± 0.08 µg/mL
CC[C@H](C)[C@H](N)C(=O)O.CN(C)C(=N)NC(=N)N [Metformin isoleucinate, metformin isoleucinate]	197.30 ± 10.62 g	189.10 ± 7.62 g	190.40 ± 7.71 g	203.33 ± 5.11 g	196.80 ± 11.54 g	87.75 ± 12.97 mg/dL	89.75 ± 19.77 mg/dL	76.75 ± 11.44 mg/dL	80.50 ± 7.51 mg/dL	70.75 ± 17.04 mg/dL	224.63 ± 9.17 g	211.30 ± 7.51 g	225.17 ± 10.85 g	115.33 ± 4.93 mg/dL	148.77 µg·h/mL	21430 ng/mL	12.53 ± 1.91 µg/mL	14.47 ± 2.58 µg/mL	10.05 ± 2.33 µg/mL	21.43 ± 3.35 µg/mL	Physical form (hygroscopicity) ([1]; listed as 12. ISOLEUCIN): Hygroscopic solid; Physical form (hygroscopicity) ([1]; listed as isoleucine): hygroscopic; blood glucose level vs vehicle, before the oral glucose overload (blood glucose level; 750 mg/kg (referred to metformin base) once a day for five days, Dunn's test): statistically significant decrease; blood glucose level vs vehicle, after the oral glucose overload (blood glucose level; Dunn's test): statistically significant decreases; blood glucose level vs vehicle, after the oral glucose overload (blood glucose level; Dunn's test, listed as metformin isoleucinate): statistically significant decrease; Metformin base concentration in plasma, 8 h post-administration [5]: 4.94 ± 0.80 µg/mL; Metformin base concentration in plasma, 24 h post-administration [5]: 0.24 ± 0.08 µg/mL
diphenformin aspartate														115.33 ± 10.02 mg/dL							
dimetformin aspartate	188.42 ± 5.42 g	186.02 ± 5.04 g	192.05 ± 6.89 g	207.73 ± 9.57 g	197.30 ± 10.15 g	98.50 ± 13.70 mg/dL	103.75 ± 9.29 mg/dL	95.25 ± 8.77 mg/dL	92.75 ± 4.11 mg/dL	89.75 ± 5.50 mg/dL	228.17 ± 10.17 g	205.23 ± 6.83 g	219.53 ± 13.36 g	120.00 ± 2.65 mg/dL	122.96 µg·h/mL	15500 ng/mL	12.43 ± 2.05 µg/mL	15.50 ± 4.49 µg/mL	13.47 ± 3.13 µg/mL	6.05 ± 0.98 µg/mL	Blood glucose level, 0.25 h post-glucose overload (blood glucose level): 96.00 ± 17.15 mg/dL; Blood glucose level, 3 h post-glucose overload (blood glucose level): 92.00 ± 6.16 mg/dL; Blood glucose level, pre-glucose overload (blood glucose level): 83.25 ± 14.89 mg/dL; Blood glucose levels before TI/RI administration, Day −1 [4]: 572.00^§ ± n.d.^§ mg/dL; Metformin base concentration in plasma, 8 h post-administration [5]: 6.50 ± 1.57 µg/mL; Metformin base concentration in plasma, 24 h post-administration [5]: 0.22 ± 0.11 µg/mL
metformin threoninate	193.13 ± 9.66 g	186.22 ± 10.13 g	188.55 ± 6.35 g	202.15 ± 5.48 g	194.20 ± 4.58 g	102.67 ± 8.02 mg/dL	101.67 ± 11.85 mg/dL	93.67 ± 10.69 mg/dL	87.67 ± 2.08 mg/dL	89.33 ± 3.06 mg/dL	231.13 ± 10.20 g	207.33 ± 8.52 g	216.43 ± 8.74 g	117.33 ± 14.05 mg/dL	107.62 µg·h/mL	14300 ng/mL	8.81 ± 2.00 µg/mL	14.30 ± 1.70 µg/mL	11.53 ± 2.61 µg/mL	11.43 ± 1.66 µg/mL	mortality and clinical signs ([2]; glucokinetic groups, 750 mg/kg for five days): died during the study just after the fifth test item administration; Blood glucose level, 0.25 h post-glucose overload (blood glucose level): 110.33 ± 16.92 mg/dL; Blood glucose level, 3 h post-glucose overload (blood glucose level): 91.67 ± 6.03 mg/dL; Blood glucose level, pre-glucose overload (blood glucose level): 90.33 ± 12.34 mg/dL; Metformin base concentration in plasma, 8 h post-administration [5]: 3.91 ± 0.33 µg/mL; Metformin base concentration in plasma, 24 h post-administration [5]: 0.23 ± 0.08 µg/mL
